Assay results reported in patent US8372967B2, “Compounds and methods for modulating expression of GCCR” (Isis Pharmaceuticals, Inc., priority 2006, dated 2013).
Strand notation (5' to 3'): a small letter for the sugar, then the base; units joined by * are phosphorothioate-linked, units joined directly phosphodiester-linked; [ ] holds rarer units or linkages, { } end groups; capitals alone tell only the bases. e = 2'-O-(2-methoxyethyl) (MOE); [5mC] = 5-methylcytosine; d = 2'-deoxy (DNA)

Legend:
[1] = test system: DGAT2 mRNA; experiment: Antisense inhibition of DGAT2 in A10 cells, 75 nM (Table 81); format: cell-based, rat; conditions: approximately 24 hours
Method: Short antisense compounds targeted to a DGAT2 nucleic acid were tested for their effects on DGAT2 mRNA in vitro. Cultured A10 cells in a 96-well plate were treated with 75 nM of short antisense compound. After a treatment period of approximately 24 hours, RNA was isolated from the cells and DGAT2 mRNA levels were measured by quantitative real-time PCR, as described herein. DGAT2 mRNA levels were adjusted according to total RNA content as measured by RIBOGREEN®. Results are presented as percent inhibition of DGAT2, relative to untreated control cells in Table 81.

[2] = test system: rat DGAT2 mRNA; experiment: Dose-dependent inhibition of DGAT2 in A10 cells (Tables 82, 83); format: cell-based
Method: Additional short antisense compounds targeted to DGAT2 mRNA were tested in vitro in a dose-response experiment. A10 cells were prepared as described above and treated with 6.25, 12.5, 25.0, 50.0, 100.0, and 200.0 nM short antisense compounds to determine if DGAT2 inhibition occurs in a dose-dependent manner. […] Results are presented as percent inhibition, relative to untreated control cells.
Additional short antisense compounds targeted to DGAT2 mRNA were tested in vitro. A10 cells were prepared as described above and treated with 0.62, 1.85, 5.56, 16.67, 50.0, and 150.0 nM short antisense compounds to determine if DGAT2 inhibition occurs in a dose-dependent manner. DGAT2 mRNA was measured using quantitative real-time PCR, as described herein. […] Results are presented as percent inhibition of rat DGAT2, relative to untreated control cells.

[3] = Organ weights: liver, WAT, spleen, kidney, GCGR study (Table 33); format: in vivo, mouse; conditions: 48 h
Method: (§1) Eight-week old male C57/BL6 mice (Jackson Laboratory, Bar Harbor, Me.) were administered a single dose of GCGR oligonucleotide by intraperitoneal injection at a concentration of […]. Each dose group consisted of four animals. Shown in Table 31 are the sequences, motifs and conjugates of the GCGR antisense compounds used in this study. Bolded residues indicate 2′-O-methoxyethyl (2′-MOE) moieties. All compounds comprise phosphorothioate internucleoside linkages throughout and each cytosine is replaced with 5-methylcytosine. ISIS 386626, ISIS 386627 and ISIS 386628 further comprise a C16 conjugate group attached to the 2′-O position of the sugar via a diamide linkage (2′-OCH2C(═O)N(H)(CH2)4N(H)C(═O)—(CH2)15CH3). GCGR antisense compounds target published GCGR sequences, including Genbank® Accession No. BC031885.1 (SEQ ID NO: 7).
(§2) Mice were sacrificed 48 hours following injection to determine serum transaminase levels (Table 32); liver, white adipose tissue (WAT), spleen and kidney weight (Table 33); cholesterol, triglyceride and glucose levels (Table 34); GCGR mRNA levels (Tables 35-41); and full-length and total oligonucleotide concentration in liver and kidney (Table 42). Endpoints were assessed using methods described herein and well known to those of ordinary skill in the art. Data is included from a pre-treatment bleed (Pre-Bleed) and post-treatment bleed (Post-Bleed).

[4] = Triglyceride, cholesterol and glucose levels, pre-bleed and post-bleed, GCGR study (Table 34); format: in vivo, mouse; parameters: Triglyceride (TRIG) Pre-Bleed / Triglyceride (TRIG) Post-Bleed / Cholesterol (CHOL) Pre-Bleed / Cholesterol (CHOL) Post-Bleed / Glucose Pre-Bleed / Glucose Post-Bleed: unit not given here
Method: as §1, §2

[5] = ALT & AST levels and toxic effects, GCGR study (Table 32); format: in vivo, mouse; conditions: C57/BL6 mice, pre-treatment bleed
Method: as §1, §2

[6] = test system: GCGR mRNA; experiment: GCGR mRNA levels in liver, C57/BL6 mice, single i.p. dose (Tables 35-41); format: in vivo, mouse
Method: Prior to quantitative PCR analysis, primer-probe sets specific to the target gene being measured were evaluated for their ability to be “multiplexed” with a GAPDH amplification reaction. After isolation the RNA is subjected to sequential reverse transcriptase (RT) reaction and real-time PCR, both of which are performed in the same well. RT and PCR reagents were obtained from Invitrogen Life Technologies (Carlsbad, Calif.). […] The RT reaction was carried out by incubation for 30 minutes at 48° C. Following a 10 minute incubation at 95° C. to activate the PLATIN 9M® Taq, 40 cycles of a two-step PCR protocol were carried out: 95° C. for 15 seconds (denaturation) followed by 60° C. for 1.5 minutes (annealing/extension).
170 μL of RiboGreen® working reagent (RiboGreen® reagent diluted 1:350 in 10 mM Tris-HCl, 1 mM EDTA, pH 7.5) was pipetted into a 96-well plate containing 30 μL purified cellular RNA. The plate was read in a CytoFluor® 4000 (PE Applied Biosystems) with excitation at 485 nm and emission at 530 nm.
as §1, §2
To determine whether the phenotypic changes shown above correlated with a decrease in GCGR mRNA, treated animals were evaluated for levels of target mRNA in liver by real time PCR according to methods described herein. Tables 35 to 41 show results from direct comparisons of the antisense compounds targeting GCGR nucleic acid for their effect on target expression. Results are expressed as percent of saline control.

[7] = test system: mouse SGLT2 mRNA; experiment: Mouse SGLT2 mRNA in kidney, additional 1-10-1 and 2-8-2 MOE gapmers (Table 68); format: in vivo; conditions: Balb/c mouse kidney
Method: 1-10-1 and 2-8-2 MOE gapmer short antisense compounds were designed to target different regions of the mouse SGLT2 RNA but have complementarity across species. […] All cytidine residues are 5-methylcytidines.
The short antisense compounds were analyzed for their effect on mouse SGLT2 mRNA levels in vivo. Data was taken from three experiments in which male 6-week old Balb/c mice were dosed twice per week for three weeks with 0.5, 0.1, or 0.02 umol/kg of either a 1-10-1 or 2-8-2 MOE gapmer given by intraperitoneal injection. Mice were sacrificed 48 hours following last administration and evaluated for SGLT2 levels in kidney. Target levels were determined by RT, real-time PCR as described by other examples herein. PCR results were normalized to an internal ISIS control.

[8] = 6.25 mg/kg group, pre-treatment bleed
[9] = 6.25 mg/kg single i.p., post-treatment bleed
[10] = 12.5 mg/kg group, pre-treatment bleed
[11] = 12.5 mg/kg single i.p., post-treatment bleed
[12] = 25 mg/kg group, pre-treatment bleed
[13] = 25 mg/kg single i.p., post-treatment bleed
[14] = 50 mg/kg group, pre-treatment bleed
[15] = 50 mg/kg single i.p., post-treatment bleed

For “372508 (antisense eA*eG*eT*dT*d[5mC]*d[5mC]*dT*dG*dG*dT*dG*dG*dT*e[5mC]*eA*eG) [compound 372508]”, the “% Control” value [1] was 35 % Control, the “percent inhibition of rat DGAT2” value ([2]; 0.62 nM (Table 83)) was 0% and the “percent inhibition of rat DGAT2” value ([2]; 1.85 nM (Table 83)) was 0%. The “percent inhibition of rat DGAT2” value ([2]; 5.56 nM (Table 83)) was 6%, the “percent inhibition of rat DGAT2” value ([2]; 16.67 nM (Table 83)) was 14% and the “percent inhibition of rat DGAT2” value ([2]; 50 nM (Table 83)) was 39%. For the same substance, the “percent inhibition of rat DGAT2” value ([2]; 150 nM (Table 83)) was 71%.
In the case of “372516 (antisense eT*eA*e[5mC]*dA*dG*dA*dA*dG*dG*d[5mC]*dA*d[5mC]*d[5mC]*e[5mC]*eA*eG) [compound 372516]”, the “% Control” value [1] is reported as 27 % Control, the “percent inhibition of rat DGAT2” value ([2]; 0.62 nM (Table 83)) is reported as 1% and the “percent inhibition of rat DGAT2” value ([2]; 1.85 nM (Table 83)) is reported as 10%. The “percent inhibition of rat DGAT2” value ([2]; 5.56 nM (Table 83)) was 0%, the “percent inhibition of rat DGAT2” value ([2]; 16.67 nM (Table 83)) was 4% and the “percent inhibition of rat DGAT2” value ([2]; 50 nM (Table 83)) was 35%. The “percent inhibition of rat DGAT2” value ([2]; 150 nM (Table 83)) was 81%.
For “372569 (antisense e[5mC]*eA*dT*dG*dA*dG*dG*dA*dT*dG*dA*d[5mC]*eA*e[5mC]) [compound 372569]”, the “% Control” value [1] was 104 % Control.
With “386628 (antisense TGTCTTGCTGCTTT; chemistry not fully specified) [compound 386628]” the “Organ Weights: Kidney” value ([3]; 6.25 mg/kg single i.p.) was 102 % saline control, the “Organ Weights: Liver” value ([3]; 6.25 mg/kg single i.p.) was 98 % saline control and the “Organ Weights: Spleen” value ([3]; 6.25 mg/kg single i.p.) was 151 % saline control. The “Organ Weights: WAT” value ([3]; 6.25 mg/kg single i.p.) was 106 % saline control, the “Organ Weights: Kidney” value ([3]; 12.5 mg/kg single i.p.) was 99 % saline control and the “Organ Weights: Liver” value ([3]; 12.5 mg/kg single i.p.) was 101 % saline control. For the same substance, the “Organ Weights: Spleen” value ([3]; 12.5 mg/kg single i.p.) was 114 % saline control, the “Organ Weights: WAT” value ([3]; 12.5 mg/kg single i.p.) was 111 % saline control and the “Organ Weights: Kidney” value ([3]; 25 mg/kg single i.p.) was 109 % saline control. The “Organ Weights: Liver” value ([3]; 25 mg/kg single i.p.) was 102 % saline control, the “Organ Weights: Spleen” value ([3]; 25 mg/kg single i.p.) was 113 % saline control and the “Organ Weights: WAT” value ([3]; 25 mg/kg single i.p.) was 97 % saline control. The “Organ Weights: Kidney” value ([3]; 50 mg/kg single i.p.) was 99 % saline control, the “Organ Weights: Liver” value ([3]; 50 mg/kg single i.p.) was 104 % saline control and the “Organ Weights: Spleen” value ([3]; 50 mg/kg single i.p.) was 126 % saline control. The “Organ Weights: WAT” value ([3]; 50 mg/kg single i.p.) was 100 % saline control, the “Cholesterol (CHOL) Pre-Bleed” value [4, 8] was 83 and the “Triglyceride (TRIG) Pre-Bleed” value [4, 8] was 117. For the same substance, the “Cholesterol (CHOL) Post-Bleed” value [4, 9] was 85, the “Triglyceride (TRIG) Post-Bleed” value [4, 9] was 121 and the “Cholesterol (CHOL) Pre-Bleed” value [4, 10] was 90. For the same substance, the “Triglyceride (TRIG) Pre-Bleed” value [4, 10] was 90, the “Cholesterol (CHOL) Post-Bleed” value [4, 11] was 94 and the “Glucose Post-Bleed” value [4, 11] was 240. The “Triglyceride (TRIG) Post-Bleed” value [4, 11] was 123, the “Cholesterol (CHOL) Pre-Bleed” value [4, 12] was 84 and the “Glucose Pre-Bleed” value [4, 12] was 210. For the same substance, the “Triglyceride (TRIG) Pre-Bleed” value [4, 12] was 102, the “Cholesterol (CHOL) Post-Bleed” value [4, 13] was 85 and the “Triglyceride (TRIG) Post-Bleed” value [4, 13] was 129. The “Cholesterol (CHOL) Pre-Bleed” value [4, 14] was 88, the “Triglyceride (TRIG) Pre-Bleed” value [4, 14] was 102 and the “Cholesterol (CHOL) Post-Bleed” value [4, 15] was 95. The “Triglyceride (TRIG) Post-Bleed” value [4, 15] was 98, the “ALT Pre-Bleed” value ([5]; dose group 6.25 mg/kg) was 22 IU/L and the “AST Pre-Bleed” value ([5]; dose group 6.25 mg/kg) was 40 IU/L. The “ALT Pre-Bleed” value ([5]; dose group 12.5 mg/kg) was 28 IU/L, the “AST Pre-Bleed” value ([5]; dose group 12.5 mg/kg) was 42 IU/L and the “ALT Pre-Bleed” value ([5]; dose group 25 mg/kg) was 24 IU/L. For the same substance, the “AST Pre-Bleed” value ([5]; dose group 25 mg/kg) was 40 IU/L, the “ALT Pre-Bleed” value ([5]; dose group 50 mg/kg) was 28 IU/L and the “AST Pre-Bleed” value ([5]; dose group 50 mg/kg) was 44 IU/L. For the same substance, the “GCGR mRNA levels” value ([6]; 6.25 mg/kg, Table 38 comparison ISIS 148364 & ISIS 386628) was 77% of saline control, the “GCGR mRNA levels” value ([6]; 6.25 mg/kg, Table 41 comparison ISIS 386628 & ISIS 386594) was 97% of saline control and the “GCGR mRNA levels” value ([6]; 12.5 mg/kg, Table 38 comparison ISIS 148364 & ISIS 386628) was 53% of saline control. The “GCGR mRNA levels” value ([6]; 12.5 mg/kg, Table 41 comparison ISIS 386628 & ISIS 386594) was 38% of saline control, the “GCGR mRNA levels” value ([6]; 25 mg/kg, Table 38 comparison ISIS 148364 & ISIS 386628) was 18% of saline control and the “GCGR mRNA levels” value ([6]; 25 mg/kg, Table 41 comparison ISIS 386628 & ISIS 386594) was 13% of saline control. The “GCGR mRNA levels” value ([6]; 50 mg/kg, Table 38 comparison ISIS 148364 & ISIS 386628) was 2% of saline control and the “GCGR mRNA levels” value ([6]; 50 mg/kg, Table 41 comparison ISIS 386628 & ISIS 386594) was 4% of saline control.
In the case of “ISIS 388627 (eG*e[5mC]*dA*d[5mC]*dA*d[5mC]*dA*dG*d[5mC]*dT*eG*e[5mC])”, the “% change in SGLT2 expression relative to saline” value ([7]; 0.02 umol/kg i.p. twice per week for three weeks) is reported as −38%, the “% change in SGLT2 expression relative to saline” value ([7]; 0.1 umol/kg i.p. twice per week for three weeks) is reported as −50% and the “% change in SGLT2 expression relative to saline” value ([7]; 0.5 umol/kg i.p. twice per week for three weeks) is reported as −65%.
